# Paper PMC11571207, “Stereorandomized Oncocins with Preserved Ribosome Binding and Antibacterial Activity” (Journal of Medicinal Chemistry, 2024)
# Like-named read-outs stand apart in the source and are kept apart here.
# Tests used:
# E. cloacae = experiment: microbe, parasite or virus in culture; conditions: Enterobacter cloacae
# Procedure, shortened: (§1)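 Minimal inhibitory concentrations come from broth microdilution in MH medium, with a top peptide concentration of 64 μg/mL halved serially.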
# K. pneumoniae OXA-48 = experiment: microbe, parasite or virus in culture; conditions: Klebsiella pneumoniae
# Procedure, shortened: as §1
# [1] = tested on: P. aeruginosa PA14 2P4 (pmrB); experiment: microbe, parasite or virus in culture; conditions: Pseudomonas aeruginosa
# Procedure, shortened: as §1
# P. aeruginosa PA14 = experiment: microbe, parasite or virus in culture; conditions: for MIC: Pseudomonas aeruginosa
# Procedure, shortened: as §1
# P. aeruginosa ZEM-1A = experiment: microbe, parasite or virus in culture; conditions: Pseudomonas aeruginosa, ZEM1A
# Procedure, shortened: as §1
# P. aeruginosa ZEM9A = experiment: microbe, parasite or virus in culture; conditions: Pseudomonas aeruginosa, ZEM9A
# Procedure, shortened: as §1
# E. coli W3110 = experiment: Time-killing kinetic assay, E. coli; assay type: cell-based, Escherichia coli; conditions: 8× MIC, full MHB pH 7.4, 0-6 h, n = 6
# Experimental: (§2) Time-Killing Kinetic Assay
# (§3) Single colonies of E. coli W3110 and K. pneumoniae NCTC418 were picked and grown overnight with shaking (180 rpm) in LB (Sigma-Aldrich, Buchs, Switzerland) medium 5 mL overnight at 37 °C. The overnight bacterial cultures were diluted to OD600 = 0.002 (2 × 10^6 CFU/mL) in fresh MHB medium. Stock solutions of AMPs in sterilized milliQ water were prepared in 1 mg/mL and were diluted to two times more than required concentration in fresh MHB (Sigma- Aldrich, Buchs, Switzerland) medium at pH 7.4. 100 μL of prepared bacteria solution in MHB and 100 μL of samples in MHB were mixed in a 96-well microtiter plate (TPP, untreated, Corning Incorporated, Kennebunk, USA). Untreated bacteria at 1 × 10^6 CFU/mL were used as a growth control. 96-well microtiter plates were incubated in 37 °C with shaking (180 rpm). Surviving bacteria were quantified at 0, 0.5, 1, 2, 4 and 6 h by plating 10 -fold dilutions of the sample in sterilized normal saline on LB agar plates. LB agar plates were incubated at 37 °C for 10 h, and the number of individual colonies was counted at each time point. The assay was performed in triplicate in a biosafety level 2 lab. […]
# K. pneumoniae NCTC418 = experiment: Time-killing kinetic assay, K. pneumoniae; assay type: cell-based, Klebsiella pneumoniae; conditions: 8× MIC, full MHB pH 7.4, 0-6 h, n = 6
# Experimental: as §2, §3
compound,measurement,setting,value
"CC[C@H]1OC(=O)[C@H](C)[C@@H](O[C@H]2C[C@@](C)(OC)[C@@H](O)[C@H](C)O2)[C@H](C)[C@@H](O[C@@H]2O[C@H](C)C[C@H](N(C)C)[C@H]2O)[C@](C)(O)C[C@@H](C)CN(C)[C@H](C)[C@@H](O)[C@]1(C)O [AZM, azithromycin, reference compound]",MIC,"E. cloacae; pH 7.4, read-out: MIC E. cloacae, 12.5% MHB, 12.5% MHB pH 7.4, 16–20 h at 37 °C",8 µg/mL
same,MIC,"E. cloacae; pH 7.4, read-out: MIC E. cloacae, full MHB, full MHB pH 7.4, 16–20 h at 37 °C",16 µg/mL
same,MIC,"E. cloacae; pH 7.4, read-out: MIC E. cloacae, supplement CSV, 12.5% MH pH 7.4",8 µg/mL
same,MIC,"E. cloacae; pH 7.4, read-out: MIC E. cloacae, supplement CSV, full MH pH 7.4",16 µg/mL
same,MIC,"K. pneumoniae OXA-48; OXA48, pH 7.4, read-out: MIC K. pneumoniae OXA-48, 12.5% MHB, carbapenem-resistant, 12.5% MHB pH 7.4, 16–20 h at 37 °C",8 µg/mL
same,MIC,"K. pneumoniae OXA-48; OXA48, pH 7.4, read-out: MIC K. pneumoniae OXA-48, full MHB, carbapenem-resistant, full MHB pH 7.4, 16–20 h at 37 °C",8 to 16 µg/mL
same,MIC,"K. pneumoniae OXA-48; OXA48, pH 7.4, read-out: MIC K. pneumoniae OXA-48, supplement CSV, 12.5% MH pH 7.4",8 µg/mL
same,MIC,"K. pneumoniae OXA-48; OXA48, pH 7.4, read-out: MIC K. pneumoniae OXA-48, supplement CSV, full MH pH 7.4",8 to 16 µg/mL
same,MIC,"[1]; PA14, pH 7.4, read-out: MIC P. aeruginosa PA14 2P4 (pmrB), 12.5% MHB, polymyxin B resistant strain, 12.5% MHB pH 7.4, 16–20 h at 37 °C",16 µg/mL
same,MIC,"[1]; PA14, pH 7.4, read-out: MIC P. aeruginosa PA14 2P4 (pmrB), full MHB, polymyxin B resistant strain, full MHB pH 7.4, 16–20 h at 37 °C",32 to 64 µg/mL
same,MIC,"[1]; PA14, pH 7.4, read-out: MIC P. aeruginosa PA14 2P4, supplement CSV, 12.5% MH pH 7.4",16 µg/mL
same,MIC,"[1]; PA14, pH 7.4, read-out: MIC P. aeruginosa PA14 2P4, supplement CSV, full MH pH 7.4",32 to 64 µg/mL
same,MIC,"P. aeruginosa PA14; PA14, pH 7.4, read-out: MIC P. aeruginosa PA14",32 µg/mL
same,MIC,"P. aeruginosa PA14; PA14, pH 7.4, read-out: MIC P. aeruginosa PA14, 12.5% MHB",32 µg/mL
same,MIC,"P. aeruginosa PA14; PA14, pH 7.4, read-out: MIC P. aeruginosa PA14, full MHB",32 µg/mL
same,MIC P. aeruginosa PA14,"P. aeruginosa PA14; supplement CSV, full MH pH 7.4",32 µg/mL
same,MIC,"P. aeruginosa ZEM-1A; pH 7.4, read-out: MIC P. aeruginosa ZEM-1A, 12.5% MHB, clinical isolate, 12.5% MHB pH 7.4, 16–20 h at 37 °C, cells marked c: single measurement (in duplicates)",< 0.5 µg/mL
same,MIC,"P. aeruginosa ZEM-1A; pH 7.4, read-out: MIC P. aeruginosa ZEM-1A, full MHB, clinical isolate, full MHB pH 7.4, 16–20 h at 37 °C, cells marked c: single measurement (in duplicates)",64 µg/mL
same,MIC,"P. aeruginosa ZEM-1A; pH 7.4, read-out: MIC P. aeruginosa ZEM-1A, supplement CSV, 12.5% MH pH 7.4",< 0.5 µg/mL
same,MIC,"P. aeruginosa ZEM-1A; pH 7.4, read-out: MIC P. aeruginosa ZEM-1A, supplement CSV, full MH pH 7.4",64 µg/mL
same,MIC,"P. aeruginosa ZEM9A; pH 7.4, read-out: MIC P. aeruginosa ZEM9A, 12.5% MHB, clinical isolate, 12.5% MHB pH 7.4, 16–20 h at 37 °C",32 to 64 µg/mL
same,MIC,"P. aeruginosa ZEM9A; pH 7.4, read-out: MIC P. aeruginosa ZEM9A, full MHB, clinical isolate, full MHB pH 7.4, 16–20 h at 37 °C",> 64 µg/mL
same,MIC,"P. aeruginosa ZEM9A; pH 7.4, read-out: MIC P. aeruginosa ZEM9A, supplement CSV, 12.5% MH pH 7.4",32 to 64 µg/mL
same,MIC,"P. aeruginosa ZEM9A; pH 7.4, read-out: MIC P. aeruginosa ZEM9A, supplement CSV, full MH pH 7.4",> 64 µg/mL
same,Killing profile against E. coli,E. coli W3110,acted bacteriostatically
same,Killing profile against K. pneumoniae,K. pneumoniae NCTC418,acted bacteriostatically
